{
  "source": "patent US6548540B2",
  "about": "“Method of treating cancer using dithiocarbamate derivatives” (Charlotte-Mecklenburg Hospital Authority, priority 1998, dated 2003)",
  "format_in_all_cases": "cell-based, human",
  "key": {"M1619 cells": {"tested_on": "M1619 cells", "assay": "Intracellular reactive oxygen species, dichlorofluorescin probe", "experimental": "Potential redox effects of disulfiram were studied in three sets of experiments. The importance of cellular glutathione (GSH) in mediating or modulating thiocarbamate toxicity was studied by measuring levels of intracellular GSH after treatment with disulfiram. […] Also, to assess whether a nonspecific antioxidant effect of disulfiram or PDTC might account for cellular growth inhibition, we studied the effect of the potent lipophilic antioxidant probucol (1.0 to 1,000 μM) on proliferation of malignant cell lines. […] A. Royall, et al., “Evaluation of 2′,7′-dichlorofluorescin and dihydrorhodamine 123 as fluorescent probes for intracellular H2O2 in cultured endothelial cells,” Archiv. Biochem. Biophys. 302:348-355 (1993)). […] Cells were plated in 24 well plastic plates at 50,000 cells per well and grown to confluence. Media was aspirated from wells and replaced with 100 μl medium containing 10 μM DCF-DA, and plates were incubated at 37° C. for 30 minutes. The DCF-DA containing media was aspirated, cells were washed twice with media alone and 100 μl fresh media was added to wells. […] The relative concentration of dichlorofluroescein was measured immediately by monitoring fluorescence at 37° C. using an excitation wavelength of 485 nm and emission wavelength of 535 nm."}, "p21WAF1/CIP1": {"tested_on": "p21WAF1/CIP1", "assay": "Immunoblot for p21WAF1/CIP1", "conditions": "cell lines studied; data not shown", "experimental": "(§1) Cells were lysed and proteins were isolated and quantitated by immunoassay as previously detailed using 2 μg/ml of primary rabbit polyclonal antibodies against human bcl-2, p53, p21^WAF1/CiP1, cyclin A and cyclin B1, and peroxidase-labeled donkey polyclonal anti-rabbit IgG. Cells were placed on ice, washed twice with cold DPBS, scraped into 0.5 ml boiling buffer (10% [vol/vol] glycerol and 2% [wt/vol] sodium dodecyl sulfate [SDS] in 83 mM Tris, pH 6.8) and sheared by four passages through a pipette. Aliquots were removed for protein determination, using the BCA protein assay (Pierce). After 10% β-mercaptoethanol and 0.05% bromophenol blue were added, lysates were boiled for 5 min and stored at −80° C. until immunoblotting was performed. Proteins in defrosted samples were separated by SDS-polyacrylamide gel electrophoresis on 12% polyacrylamide gels (15 μg protein/lane) and electrotransferred to 0.45 μm Hybond ECL nitrocellulose membranes (Amersham Life Sciences) using the wet transblot method in transfer buffer (0.025 M Tris, 0.192 M glycine, 2.6 mM SDS, and 20%[vol/vol] methanol; pH 8.8) at 100 volts for 1 hour. […] Immunoblots were rinsed again as above and detected via an enhanced chemiluminescence method (ECL Western blotting detection system, Amersham Life Science, Buckinghamshire, England). […]"}, "[1]": {"tested_on": "transcription factor binding to CRE (cyclic AMP response element)", "assay": "EMSA of nuclear protein from treated M1619 cells, binding to CRE", "experimental": "This dose was chosen to approximate the steady state plasma and tissue concentrations of drug in human subjects on chronic therapy with this agent. Disulfiram was solubilized in dimethylsulfoxide (DMSO) so that the final concentration of DMSO was less than 0.3-0.5%. Equal volumes of DMSO were added to control experiments. Nuclear protein was harvested and electrophoretic mobility gel shift assays were performed using DNA consensus binding sequence for the cyclic-AMP responsive element (CRE) as outlined below. […] Nuclear protein was isolated and DNA binding reactions were performed as previously described in detail (See, […], et al., “Dehydroepiandrosterone and analogs inhibit DNA binding of AP-1 and airway smooth muscle proliferation,” J. Pharmacol. Exper. Ther. 285:[…] (1998); T. Kennedy, et al., “Copper-dependent inflammation and nuclear factor-κB activation by particulate air pollution,” Am. J. Respir. Cell Mol. Biol. 19:366-378 (1998)). Monolayers were washed twice in cold DPBS and equilibrated 10 minutes on ice with 0.7 ml cold cytoplasmic extraction buffer, CEB (10 mM Tris, pH 7.9, 60 mM KCl, 1 mM EDTA, 1 mM DTT) with protease inhibitors, PI (1 mM Pefabloc, 50 μg/ml antipain, 1 μg/ml leupeptin, 1 μg/ml pepstatin, 40 μg/ml bestatin, 3 μg/ml E-64 and 100 μg/ml chymostatin). The detergent Nonidet P-40 (NP-40) was added to a final concentration of 0.1% and cells were dislodged with a cell scraper. Nuclei were pelleted by centrifugation and washed with CEB/PI. […] DNA-protein binding reactions were performed with 2 μg of nuclear protein (as determined by the Pierce method) and 30-80,000 cpm of ^32P-end-labelled double-stranded DNA probe in 10 mM Tris-HCl, pH 7.5, 50 mM NaCl, 0.5 mM EDTA, 0.5 mM DTT (except where indicated), 1 mM MgCl2, 50 μg/ml poly dI-dC, and 4% glycerol. […] Gels were dried and analyzed by autoradiography at -80° C. using an image intensifier screen. […]"}, "cyclin B1": {"tested_on": "cyclin B1", "assay": "Immunoblot for cyclin B1", "conditions": "disulfiram plus copper; data not shown", "experimental": "as §1"}},
  "note": "“Also recorded” adds a separate entry of the source.",
  "data": [
    {"smiles": "CCN(CC)C(=S)SSC(=S)N(CC)CC", "note": "[Disulfiram, tetraethylthiuram disulfide]", "values": [
      {"measurement": "generation of reactive oxygen species (dichlorofluorescein fluorescence vs baseline)", "setting": "M1619 cells; 1.25 μM disulfiram and 0.2 to 1.6 μM CuSO4", "result": "not increased"},
      {"measurement": "generation of reactive oxygen species (dichlorofluorescein fluorescence vs baseline)", "setting": "M1619 cells; disulfiram 0.625 to 5 μM", "result": "not increased"},
      {"measurement": "expression of p21WAF1/CIP1", "setting": "p21WAF1/CIP1", "result": "no consistent effect"},
      {"measurement": "DNA-binding to CRE", "setting": "[1]; 5 μM disulfiram alone, treated cells", "result": "slightly reduced"},
      {"measurement": "transcription factor binding to CRE", "setting": "[1]; 5 μM disulfiram and 1.6 μM cupric sulfate, cells treated 6, 12 or 24 hour", "result": "substantially interrupts; also recorded: eliminated"},
      {"measurement": "DNA binding of the upper ATF-2 containing complex II (densitometry)", "setting": "[1]; disulfiram 5 μM plus CuSO4 1.6 μM, 8 hours, n=4", "result": "by half"},
      {"measurement": "levels of B1", "setting": "cyclin B1", "result": "remained unchanged"}
    ]}
  ]
}
